Data taken from patent US9474793B2, “Vaccines and methods for prevention and treatment of drug-resistant HIV-1 and hepatitis B virus” (The United States of America, as represented by the …, priority 2005, dated 2016).
Where “and” joins values, the source holds several entries; their conditions need not be identical. Equal values may be shown once. Entries after “also recorded” stand apart in the source; their conditions may differ. Read-outs that look alike come from different tables or passages of the source.

Experiments:
[1] = tested on: RT-WT specific CTL lines; experiment: Recognition of RT-variant peptides by RT-WT-specific CTL lines (FIG. 2); settings: E/T ratio 10:1
Description: (§1) CTL activity was measured using a 4-hr assay with ^51Cr-labeled target cells (Okazaki et al., J Immunol 2003, 171(5):2548-2555). Target cells (10^6) were pulsed in 100 μl of CTM and 150 μCi ^51Cr for 1.5 hr, washed three times, and added at 3,000 cells/well to the 96-well round-bottom plates with different peptide concentrations. Effector cells were introduced 2 h later. Then, the supernatants were harvested and counted following an additional 4-hr incubation. The percentage of specific ^51Cr release was calculated as 100×(experimental release−spontaneous release)/(Maximum release−spontaneous release). Spontaneous release was determined from target cells incubated in the absence of effector cells. Maximum release was determined in the presence of 0.1 M HCl. C1R.AAD cell lines served as target cells.

[2] = target: T1, HLA-A2.1 molecules (Homo sapiens, UniProt P04439, D140Y/D185E/D98H/E176V/E277Q/G131W/G231S/I119V/I121R/I166T/I218V/L300P/L318F/N151K/N90K/P208A/P217A/Q86G/Q94H/R138H/R169H/T345S); settings: Okazaki et al. 2003; cited from earlier work
[3] = tested on: RT-WT peptide-pulsed C1R.AAD target cells; experiment: 51Cr-release cytotoxicity assay: recognition of RT-WT by peptide-specific CTL lines from HHD-transgenic mice; settings: FIGS. 3-5; E/T ratio 10:1
Description: Mice more than eight weeks of age were immunized subcutaneously in the base of the tail with 100 μl of an emulsion containing 1:1 incomplete Freund's adjuvant (IFA) and PBS solution with antigens and cytokines (50 nmol CTL epitope, 50 nmol HBV core 128-140 helper epitope, 5 μg of IL-12 and 5 μg of granulocyte-macrophage colony stimulating factor). Mice were boosted two weeks later. Spleens were removed 10-14 days after the boost. Immune spleen cells (2.5×10^6/well) were stimulated in 24-well plates with autologous spleen cells (5×10^6/well) pulsed for 2 h with 10 μM CTL epitope peptide in CTM supplemented with 10% T-Stim (Collaborative Biochemical Products, Bedford, Mass.). Following more than 4 in vitro stimulations with peptide-pulsed syngeneic spleen cells, CTL lines were maintained by weekly restimulation of 1×10^6 CTL/well with 4×10^6 peptide pulsed irradiated (3,300 rads) gynogeneic spleen cells as feeders, or by weekly stimulation of 1×10^6 CTL/well with 3.8×10^6 peptide pulsed irradiated C57BL/6 spleen cells and 1-3×10^5 peptide pulsed and irradiated (15,000 rad) Jurkat-A2K^b transfectant cells.
as §1

[4] = assay type: physicochemical
Description: CTL peptides of the present invention, including the CTL peptide […] (SEQ ID NO:6; […]. The CTL peptide […] (SEQ ID NO:6; […]. The recommended storage of intact vials of the CTL peptide […] (SEQ ID NO:6; […].
Further, the CTL peptide […]

[5] = assay type: physicochemical; settings: mixed with Montanide ISA-51 (300 μg dose)
Description: When the CTL peptide […] (SEQ ID NO:6; […]

[6] = target: T1, HLA-A2.1 molecules; assay type: binding
[7] = cited from earlier work
[8] = tested on: HIV; settings: patients infected with HIV; cited from earlier work

Which “Recognition of the peptide by RT-WT-specific CTL” value [1] does the source give for “VIYQYMDDL (conserved HLA-A2-restricted cytotoxic T lymphocyte (CTL) epitope in human immunodeficiency virus 1 (HIV-1) drug-sensitive wild-type reverse transcriptase (RT-WT), residues 179-187)” here?
Its value is “recognized”.

What does the source list for VLYQYMDDV [RT-2L9V]?
binding ability to HLA-A2 relative to RT-WT [2]: approximately 8 fold; Recognition of RT-WT by the peptide-specific CTL line [3]: most strongly among all four CTL types

With VLYQYVDDV as the substance, how does the “freeze-thaw-freeze cycles through which the peptide is stable” value [4] read?
The value was “at least two”.

What about the “degradation by HPLC” value ([4]; 1.6 mg/ml, 4° C. and 22° C., by 7 days) of the same substance?
The value was “No degradation”.

And the “loss by adsorption onto the borosilicate glass vial” value ([4]; at the concentrations to be used for vialing)?
Its value is “not significantly lost”.

What about the storage stability ([4]; controlled room temperature (15° C.-30° C.)) of the same substance?
The storage stability was 3 months.

What about the storage stability ([4]; freezer (−10° C. to −25° C. and −70° C.)) of the same substance?
Its storage stability is “at least 18 months”.

What about the storage stability ([4]; refrigerator (2° C.-8° C.)) of the same substance?
Its storage stability is “at least 9 months”.

What about the “physical stability of the emulsion” value [5] of the same substance?
Its value is 3 h.

What about the “Recognition of RT-WT by the peptide-specific CTL line” value [3] of the same substance?
The value was “to some extent; also recorded: slightly weaker than that of RT-2L9V specific CTL”.

For YLYQYVDDV, which “FI0.5 (concentration required to give an FI of 0.5)” value [6] is on record?
The value was 0.245 µM and 0.176 to 0.245 µM.

What does the source list for “sargramostim: glycosylated, recombinant human sargramostim; position 23 arginine replaced with leucine, expressed in yeast”?
stability after reconstitution ([7]; 250 μg vial reconstituted with bacteriostatic water for injection, refrigerator): 20 days; stability after initial entry into the vial ([7]; 500 μg/ml liquid): up to 20 days; effect on viral load [8]: slight decrease; impact on the CD4 count [8]: little impact; safety [8]: safe
